The values below are quoted from earlier work in patent US20090269400A1, “Nanoparticulate and Controlled Release Compositions Comprising a Cephalosporin” (ELAN PHARMA INTERNATIONAL LIMITED, priority 2005, published 2009).

Read-outs that look alike come from different tables or passages of the source.

The conditions of this data set: stated in words in background/summary, no method given.

For the compound `COCC1=C(C(=O)OC(C)OC(=O)OC(C)C)N2C(=O)[C@@H](NC(=O)/C(=N\OC)c3csc(N)n3)[C@H]2SC1` (mixture of isomers) [Cefpodoxime proxetil, (RS)-1(isopropoxycarbonyloxy)ethyl (+)-(6R,7R)-7-[2-(2-amino-4-thiazolyl)-2-{(Z)methoxyimino}acetamido]-3-methoxymethyl-8-oxo-5-thia-1-azabicyclo [4.2.0]oct-2-ene-2-carboxylate], the solubility in water entry is recorded as “practically insoluble in water”. Under “listed as cefpodoxime proxetil”, the solubility in water entry is “only slightly soluble in water”.

Regarding `COCC1=C(C(=O)O)N2C(=O)[C@@H](NC(=O)/C(=N\OC)c3csc(N)n3)[C@H]2SC1` [cefpodoxime], the solubility in water result was “practically insoluble in water”.
